Measurements as given in patent US20030005484A1, “Microbiocidal and pesticidal aromatic aldehydes” (ProGuard, Inc., priority 1994, published 2003).
Read-outs that look alike come from different tables or passages of the source.

What was measured:
[1] = test system: Spider Mites; assay: spider mites on cabernet sauvignon grapevines, 0.3% spray; type: in vivo; details: 0.3% CNMA; two days after spraying; untreated 17.9
Procedure: The effect of 0.3% cinnamic aldehyde on leafhoppers and spider mites on grapevine leaves was examined. 30% cinnamic aldehyde was diluted 1:100 in water and sprayed one time on a 1 acre block of cabernet sauvignon grapevines in a vineyard using a 300 gal Pul-Blast rsprayer at 160 psi. 120 gal. were applied to one acre of vineyard. As a control, a one-acre block remained untreated. Blocks were pseudo-replicated so as to obtain an indication of the reliability of the treatment. Prior to treatment mites on leaves were pre-counted using a dissecting microscope. Leafhopper numbers also were determined in the field prior to treatment. Two days after spraying, two leaves, one from the basal portion and one from the proximal portion of the vine were examined from 16 vines from 2 rows for each treatment. Leaf samples also were taken from both sides of the vines (north and south) to include variation due to vine exposure. […]

[2] = test system: root-knot nematode, Meloidogyne javanica; type: in vivo
Procedure: In a double blind study, concentrations of the subject aldehyde compounds were tested for activity against root-knot nematode, Meloidogyne javanica. Nematodes were put in direct contact with the chemical and at 24 hour intervals, mortality was assessed both visually and by probing. Meloidogyne javanica were produced using hydroponics. The nematodes were harvested and used within 24 hours.
Approximately 100 nematodes in 0.07 mls of water were pipetted into a syracuse dish (Fisher) and 1 ml of test formulation was immediately pipetted into each dish. The dishes were then placed into plastic bags to retain moisture and prevent evaporation. Four syracuse dishes were used for each solution test formulation. […] Moving nematodes were counted as living.

Compound: O=C/C=C/c1ccccc1 [cinnamic aldehyde]
- MITES/LEAF [1]: 3.27
- effect on mortality ([2]; 0.1 ppm in vehicle): no effect on mortality
- effect on mortality ([2]; 1 ppm in vehicle): no effect on mortality
- nematodes dead ([2]; 10 ppm in vehicle, 24 hours): 0%
- nematodes dead ([2]; 10 ppm in vehicle, 48 hours): 15%
- nematodes dead ([2]; 10 ppm in vehicle, 72 hours): 17.5%
- nematodes dead ([2]; 10 ppm in vehicle, 96 hours): 22.5%
- nematodes dead ([2]; 10 ppm in vehicle, 108 hours): 27.5%
- nematodes dead ([2]; 10 ppm in vehicle, 132 hours): 52.5%
- nematodes dead ([2]; 10 ppm in vehicle, 156 hours): 52.5%
- nematodes dead ([2]; greater than 100 ppm in vehicle (2% Tween 80, 6% NaHCO3), 24 hours): 100%
